Results published in patent US5296479A, “Treatment of psychosis using 1-cycloalkylpiperidines” (priority 1992, dated 1994).
Where a name gives a salt, the structure may show the parent alone.

Experiments:
[1] = tested on: isolation-induced aggressive behavior; experiment: Isolation-Induced Aggression in Mice; format: in vivo, Male Balb/c mice; settings: oral, Table II discussion
Experimental: Male Balb/c mice (Charles River) were used. […] Isolated mice failing to consistently attack an intruder were eliminated from the colony. Drug testing was carried out by treating the isolated mice with test drugs or standards. Fifteen minutes after dosing with test drugs by the oral route, one isolated mouse was removed from its home cage and placed in the home cage of another isolate. Scoring was a yes or no response for each pair. A maximum of 3 minutes was allowed for an attack and the pair was separated immediately upon an attack. Selection of home cage and intruder mice was randomized for each test. Mice were treated and tested twice a week with at least a 2 day washout period between treatments.

catalepsy = experiment: Induction of catalepsy; format: in vivo, Male CD rats; settings: rats, oral; Table III discussion
Experimental: Male CD rats (Charles River) weighing 250-300 g were treated with test drugs and standards by the oral route and tested for the presence of catalepsy 30 minute, 60 minute, and 90 minute after treatment. To test for catalepsy, each rat is placed with its front paws over a 10 cm high horizontal bar. The intensity of catalepsy is measured by the length of time it takes the animal to move both forelegs to the table. A time of 20 seconds is considered maximal catalepsy.

[2] = tested on: PCP-induced turning behavior; experiment: PCP-induced turning behavior in rats; format: in vivo, Male Sprague-Dawley rats; settings: p.o., Table III discussion
Experimental: Male Sprague-Dawley rats (CD/CR, Charles River), weighing 190-290 g, were used for surgery. In order to spare […] neurons, rats were injected with 25 mg/kg imipramine i.p. 30 minutes before surgery. The rats were anesthetized with a 1:1.2 ratio mixture of Xylazine:Ketamine given 0.1 mL/100 g body weight i.m. A Ringers-Wydaze (100:0.01) solution was given to prevent dehydration. Dopamine was depleted in the right striatum by injecting the neurotoxin 6-hydroxydopamine (6-OHDA) into the substantia nigra of the right cerebral hemisphere. Five mg of 6-OHDA was dissolved in 5 mL of a 0.04% ascorbic acid solution which had been deoxygenated with nitrogen. Five μL of the 6-OHDA solution was injected into the substantia nigra through a 26 gauge needle over a five minute period. […]
Rotation rate and direction were determined with Coulbourn Instruments Rotometry Monitors. Clockwise and counter clockwise rotations were recorded at 30 and 60 minute intervals. […]
The data were analyzed with an analysis of variance statistical test and individual comparisons of each dose of test drug to control were made with Dunnett's multiple range test. The ED50 was calculated with a Litchfield and Wilcoxon test using percent of control values.

Row | Structure (SMILES) | inhibiting the isolation-induced aggressive behavior, in words [1] | producing catalepsy, in words (catalepsy) | inhibiting PCP-induced turning behavior, in words [2]
1 | Fc1ccc(OCC2CCN(CC3CC3)CC2)cc1 [Example 1, 1-(Cyclopropylmethyl)-4-(4-fluorophenoxymethyl)piperidine] | potent activities | – | –
2 | O=C(CCCN1CCC(O)(c2ccc(Cl)cc2)CC1)c1ccc(F)cc1 [Haloperidol] | potent activities | very potent in producing catalepsy | potent activity
3 | O=C(CC1CCN(CC2CC2)CC1)c1ccc(F)cc1 [Example 504, 1-(Cyclopropylmethyl)-4-2'-(4"-Fluorophenyl)-2-oxoethyl)-piperidine, hydrobromide salt] | – | does not produce catalepsy | potent activity
